Data reported in ChEMBL document CHEMBL1201862, “PubChem BioAssay data set” (2004).
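Briefly, cells in 96-well plates were exposed to five compound concentrations for 48 h, and endpoints were estimated by linear interpolation. GI50 is the concentration that inhibits growth by half.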 Active and inactive are the calls of the source. No stated cut-off is given here; in the data, active = GI50 up to about 1.1 µM and inactive = higher.

Experiments:
Assay in all cases: inhibition of tumour cell growth, NCI panel, 48 h
COLO 205 = tested on: COLO 205
MOLT-4 = tested on: MOLT-4
BT-549 = tested on: BT-549
SNB-19 = tested on: SNB-19
DU-145 = tested on: DU-145
786-0 = tested on: 786-0
NCI/ADR-RES = tested on: NCI/ADR-RES
HL-60 = tested on: HL-60
IGROV-1 = tested on: IGROV-1
PC-3 = tested on: PC-3
SK-MEL-28 = tested on: SK-MEL-28
SF-539 = tested on: SF-539
MDA-N = tested on: MDA-N
SK-OV-3 = tested on: SK-OV-3
UO-31 = tested on: UO-31
OVCAR-4 = tested on: OVCAR-4
A549 = tested on: A549
A498 = tested on: A498
RPMI-8226 = tested on: RPMI-8226
HOP-92 = tested on: HOP-92

Measured: GI50

CC(=O)C(C)(C)CCC(C)(C)C(C)=O
inactive: COLO 205 > 100 µM | MOLT-4 > 100 µM | BT-549 > 100 µM | SNB-19 > 100 µM | DU-145 > 100 µM | 786-0 > 100 µM | NCI/ADR-RES > 100 µM | HL-60 > 100 µM | IGROV-1 > 100 µM | PC-3 > 100 µM | SK-MEL-28 > 100 µM | SF-539 > 100 µM | MDA-N > 100 µM | SK-OV-3 > 100 µM | UO-31 > 100 µM | OVCAR-4 > 100 µM | A549 > 100 µM

COc1cc(-c2[o+]c3cc(O)cc(OC4OC(CO)C(O)C(O)C4O)c3cc2OC2OC(CO)C(O)C(O)C2O)cc(OC)c1O (stereo not given)
inactive: COLO 205 > 100 µM | MOLT-4 > 100 µM | BT-549 > 100 µM | SNB-19 > 100 µM | DU-145 > 100 µM | 786-0 > 100 µM | HL-60 21.1 µM | A498 > 100 µM | IGROV-1 > 100 µM | RPMI-8226 > 100 µM | HOP-92 > 100 µM | PC-3 > 100 µM | SK-MEL-28 > 100 µM | SF-539 > 100 µM | MDA-N > 100 µM | SK-OV-3 > 100 µM | UO-31 > 100 µM | OVCAR-4 > 100 µM | A549 > 100 µM

CSc1nc(=O)cnn1C
inactive: COLO 205 > 100 µM | MOLT-4 > 100 µM | BT-549 > 100 µM | SNB-19 > 100 µM | DU-145 > 100 µM | 786-0 > 100 µM | NCI/ADR-RES > 100 µM | IGROV-1 > 100 µM | RPMI-8226 > 100 µM | PC-3 > 100 µM | SK-MEL-28 > 100 µM | MDA-N > 100 µM | SK-OV-3 > 100 µM | UO-31 > 100 µM | OVCAR-4 > 100 µM | A549 > 100 µM

COc1cccc(C2c3cc4c(cc3OC(Nc3ccccc3)C2C)OCO4)c1OC (stereo not given)
inactive: COLO 205 4.98 µM | MOLT-4 1.81 µM | BT-549 9.12 µM | SNB-19 > 100 µM | DU-145 7.08 µM | 786-0 10.6 µM | HL-60 2.1 µM | A498 11.5 µM | IGROV-1 14.9 µM | RPMI-8226 1.64 µM | HOP-92 5.43 µM | PC-3 4.47 µM | SK-MEL-28 41.3 µM | SF-539 13.2 µM | MDA-N 34.8 µM | SK-OV-3 7.59 µM | UO-31 4.19 µM | A549 6.04 µM
